The source of these data is patent publication US9593146B2, “CD44v6-derived peptides for treating metastasizing cancer” (AMCURE GMBH, priority 2012, dated 2017).

The test system of experiment [1] is Met and ERK. In words: HGF induced activation of Met and ERK in L3.6pl cells (Western blot). In kind it is cell-based, human. The settings on record: L3.6pl cells, peptide prior to induction with 10 ng/ml HGF. Here is the method:
(§1) Serum-starved cells (24 hours) were induced with the growth factor HGF (10 ng/mL) at 37° C. for 5 minutes. Where indicated, the cells were treated with peptides (100 ng/ml) prior to induction at 37° C. for 10 minutes (100 ng/mL CD44v6 peptide or control peptide). Following the induction with HGF, cells were washed with ice-cold phosphate-buffered saline (PBS). To detect activated Met and Erk, cells were lysed in sodium dodecyl sulfate (SDS)-sample buffer containing 100 mM dithiothreitol (DTT), boiled and subjected to western blot analysis using antibodies against phospho-Met and ERK. The loading controls were performed on the same blot after stripping (62.5 mM Tris, pH 6.8, 2% SDS, 0.8% DTT) by probing with the Met respectively ERK antibody. Blots were stained using the enhanced chemiluminescence system (Thermo Fisher Scientific, Schwerte, Germany). Bands in western blot analysis were quantified with the program Image J (National Institutes of Health).
(A western blot detects proteins with antibodies after separation by electrophoresis.)

For experiment [2], the system named is L3.6pl cells. In words: Human orthotopic model of pancreatic cancer, L3.6pl cells in nude mice. The format is in vivo. Here is the method: In the case of the human orthotopic model, L3.6pl pancreatic carcinoma cells (passage 24-26) were suspended in Hank's balanced salt solution (Invitrogen, Karlsruhe, Germany) after trypsinization. The cells were injected orthotopically in the pancreas of male nude mice as described (Bruns C J et al. (1999) Neoplasia 1(1):50-62). Two groups of 15 mice each were injected i.p. 7 days later with either the human v6 peptide respectively rat control peptide (20 μg). For all experiments described and depicted herein either the rat 14mer control peptide or the human 14mer peptide were used. All experiments were then repeated with the rat 5mer control peptide or the human 5mer peptide (N-R-W-H-E, SEQ ID NO: 2). […] The injection was repeated three times per week for 21 days. Two days after the last treatment the animals were killed. […]
A comparison of different CD44v6 peptide derivatives was performed in animals bearing a orthotopic L3.6pl tumor. 10 groups of 5 animals each received a dose of 20 μg peptide per injection three times per week for 3 weeks with the compounds listed in Table 4. Three weeks after starting the treatment the animals were sacrificed and analyzed for macroscopic metastases and tumor volume.

Experiment [3] relates to HT29 cells. As to the kind of experiment: HGF induced scattering of HT29 cells. In kind it is cell-based, human. The settings on record: for HGF induced clustering / scattering of HT29 cells (FIG. 11): HGF 10 ng/ml, peptide pre-incubation (Example 2). Here is the method: FIG. 17: The human CD44 v6 specific peptides block HGF induced cell scattering and invasion into matrigel. Scattering of HT29 cells was determined in 24-well plates. First, 4.5×10^4 cells were seeded at 37° C.; after 24 h the cells were serum starved for additional 24 h. the cells were either left untreated (control) or later treated with HGF (50 ng/ml) for 24 h. Where indicated the cells were treated with the v6 specific peptide (human v6 5mer, 10mer, 14mer) or control peptide prior to induction with HGF for 30 min. Pictures were made using phase contrast microscopy. Magnification 40×.
A scatter assay was performed additionally. HT29 colon cancer cells were grown in medium containing 10% FCS. One day after seeding, the cells were starved. On the third day, the cells were induced with HGF (10 ng/ml) and pre-incubated with either no peptide, ctrl-peptides (SEQ ID No.: 15), non-pegylated v6-peptides (SEQ ID No.: 11) or the pegylated peptides, namely PEG-rat control peptide and PEG-rat CD44v6 peptide.
Scattering of HT29 cells was determined in 24-well plates. First, 4×10^5 cells were seeded at 37° C.; the cells were either left untreated or 48 h later treated with HGF (50 ng/ml) for 24 h or with PEGylated or non-PEGylated peptides (100 ng/ml) prior to HGF induction for 30 min.

Experiment [4] concerns BSp73ASs6 cells. In words: Rat syngeneic model, subcutaneous BSp73ASs6 tumor, metastasis formation. In kind it is in vivo. The note with it: for metastasis (axillary lymph nodes, lungs): 200 μg per injection, intra-tumoral or intravenously three times a week, start after one week of tumor growth; for outgrowth of primary tumors / metastasis and micro-metastasis in lung sections (PAS and H&E staining): same treatment; for outgrowth of primary tumors: 28 days; for metastasis and micro-metastasis in lung sections (PAS and H&E staining): histological analysis. How it is done:
In the case of the rat syngeneic model, 1×10^6 pancreatic cells (BSp73AS and its transfectants) were subcutaneously injected into the right posterior flank of the animals. Tumors developed for four weeks. During this time period animals injected with BSp73ASs6 cells expressing Met-shRNA or control-shRNA received doxycycline in the drinking water. At the end of the experiment, primary tumors were isolated. Lungs and axillary lymph nodes were analyzed. The tissues were incubated for 24 h in a zinc-fixative (0.5 g calcium acetate, 5.0 g zinc acetate, 5.0 g zinc chloride, in 1 L 0.1 M Tris pH 7.4) and embedded in paraffin for further analysis. In case of peptide or antibody treatment tumors developed for one week before the first treatment. Where indicated, animals received 200 μg of peptide or antibody per injection three times per week for four weeks. Tumor growth was monitored weekly using a caliper. Animals were killed at day 28 or 30 after start of the treatment.
For histo-morphological analysis paraffin-embedded sections of lungs were stained with hematoxylin and eosin and periodic acid-Schiff (H&E or PAS). Serial sections of the whole tissue blocks were examined by analyzing slices every 20 μm; in each slice, the presence and the extension of the metastatic deposit was assessed, according to the procedure routinely used by pathologists to evaluate the presence of micro-metastases.

For experiment [5], the system named is BSp73ASs6 cells. As to the kind of experiment: Apoptosis in established lung metastases (cleaved Caspase-3, cleaved Caspase-8), BSp73ASs6 rat model. In kind it is in vivo. The note with it: injection every second day. Here is the method:
7 μm thick paraffin sections were deparaffinized and rehydrated. For P-Met staining antigen unmasking was achieved by boiling the slides in 1 mM EDTA pH 8.0 followed by incubation for 15 minutes at a sub-boiling temperature, for CD31 staining the sections were treated with Proteinase K (8 μg/ml) for 10 min at 37° C. For immunofluorescence staining of P-Met, unspecific binding was blocked with 5% goat serum (DAKO, Glostrup, Denmark) (diluted in 1×PBS/0.3% Triton X-100) for 60 minutes. In the case of immunohistochemistry, endogenous peroxidases were at first blocked with 3% H2O2 in PBS followed by incubation with biotin blocking system (Dako, Glostrup, Denmark) and then unspecific binding was inhibited by incubation with 5% FCS in PBS. The sections were incubated with the P-Met antibody (D26, dilution 1:50 in 1×PBS/1% BSA/0.3% Triton X-100), Met antibody (C-28, dilution 1:50), GFP antibody (sc-101525, dilution 1:50) or CD31 antibody (5 μg/ml) over night or VFF18 (5 μg/ml) o/n at 4° C. After washing in PBS the sections were incubated with Alexa Fluor R 546 goat anti-rabbit (in case of immunofluorescence P-Met and Met staining, dilution 1:500) or a biotinylated secondary antibody (for immunohistochemical stainings rabbit anti-rat antibody for VFF18 and CD31, goat anti-rabbit for P-Met, cleaved Caspase-3 and cleaved Caspase-8 and rabbit anti-mouse for GFP, dilution 1:500) for 45 minutes. For DAB (3,3′-diaminobenzidine) staining the sections were treated with a streptavidin-peroxidase conjugate (Dako, Glostrup, Denmark) and developed with DAB substrate system (3,3′-diaminobenzidine; Biozol, Eching, Germany). For immunofluorescence DAPI was used for nuclear staining.
One hypothesis for the disappearance of metastases is that the peptides induce apoptosis of CD44v6-expressing metastatic cells in the secondary organs. In order to test this hypothesis, the experiment described above using the BSp73ASs6 cells was repeated. The cells were injected subcutaneously in syngeneic rats and the tumor was allowed to develop for three weeks. After that time the animals were separated in two groups of 10 animals that were injected either with the specific rat CD44v6 peptide or with the control peptide (mouse) every second day. One day following each injection of the peptide, the lungs of one animal were removed and apoptosis was measured using an antibody that detects the cleaved form of Caspase 3. […] Twelve days after injection of the CD44v6 peptide, less apoptosis was observed. […] From these experiments, it is concluded that the CD44v6 peptide induces apoptosis of metastatic cells.

The test system of experiment [6] is 4T1 cells. As to the kind of experiment: Syngeneic orthotopic 4T1 mammary carcinoma model in BALB/c mice. In kind it is in vivo. The note with it: 20 μg i.p. 3 times per week for two weeks. How it is done:
FIG. 26: Treatment with the v6 14mer reduces growth of the primary tumor and macroscopic metastases formation in the lung. 1×10^6 murine 4T1 cells per mouse were diluted in 50 μl RPMI plus 50 μl Matrigel and injected into the 6th mammary fat pad of 10 female BALB/c mice. One week after the injection, the mice were either injected intraperitoneally with 20 μg of the murine v6 14mer dissolved in 100 μl PBS or with 20 μg of control peptide (rat v6 14mer) dissolved in 100 μl PBS. The injection was performed 3 times per week for two weeks. After 2 weeks the mice were sacrificed and the primary tumors and the lungs were extracted. A: Overall reduction of the tumor volume in the v6 peptide treated group. B: Immunofluorescent staining for the endothelial marker CD34 to monitor vascularization of the primary tumor. Graphic representation of the reduction of the total vessel area. C: The v6 peptides led to a reduction in macroscopic lung metastasis. The black arrows mark examples for metastases. The scale bar corresponds to a size of 1 cm. Statistical evaluation of the average number of lung metastases. Significance was calculated using Student's t test: p*<0.01; **p<0.005. Each group consisted of 5 animals.
The effect of the CD44v6 14mer was tested in a syngeneic mouse model by orthotopic injection of the murine mammary carcinoma cells 4T1. 4T1 cells were originally derived from a spontaneously arising BALB/c mammary tumor. When introduced orthotopically, 4T1 cells grow rapidly at the primary site and form metastases in the lung and the lymph nodes within a period of 3-6 weeks. The tumor growth and metastatic spreading of 4T1 cells in BALB/c mice very closely mimics human breast cancer stage IV.
The 4T1 cells were injected orthotopically into the 6th mammary fat pad. Two groups of 5 animals each with the implanted tumor cells were then used for the experiment. One group was treated with the v6 14mer peptide, one with a control (rat) peptide. The injection of the peptide was performed 3 times per week and planned for three to four weeks but had to be stopped after two weeks as the control group suffered from large tumors.

Experiment [7] deals with Met and ERK. As to the kind of experiment: HGF induced activation of Met and Erk in BSp73ASs6 cells (Western blot). In kind it is cell-based, rat. Here is the method:
as §1
Rat pancreatic cancer cells BSp73ASs6 (also designated Ass6) were incubated for 10 min at 37° C. with either ctrl-peptides (SEQ ID No.: 15), non-pegylated v6-peptides (SEQ ID No.: 11) and increasing concentrations of the pegylated peptides, namely PEG-rat control peptide and PEG-rat CD44v6 peptide, before induction with HGF (10 ng/ml; 5 min at 37° C.).
Activation of ERK and Met was determined by standard SDS and Western Blotting techniques using a phospho-Met and phospho-Erk specific antibody (phospho-Met clone D16 cell signaling, phospho-Erk p42/44 cell signaling)
ASs6 cells, serum starved for 24 h, were induced with HGF (10 ng/ml) at 37° C. for 5 min. Where indicated, the cells were treated with PEGylated or non-PEGylated peptides before induction at 37° C. for 10 min (150 nM). Cells were washed with phosphate-buffered saline (PBS) and lysed in boiling sodium dodecyl sulfate (SDS)-sample buffer containing 100 mM dithiothreitol (DTT). Subsequently, lysates were subjected to Western blot analysis using antibodies against phosphorylated Mek and Erk (Cell signaling). The Mek and Erk loading control were performed on the same blot, stripped (62.5 mM Tris pH 6.8, 2% SDS, 0.8% DTT) and probed with the Mek and Erk antibodies. Blots were stained using the enhanced chemiluminescence system (Thermo Fisher Scientific).

Where [8] appears, read: 20 μg i.p. three times per week for three weeks, start 7 days after implantation.

Regarding “NEWQG [rat 5mer, rat CD44v6 5mer peptide]”, the “Phosphorylation of Met and ERK” value in experiment [1] was “had no influence on receptor activation and signal transduction”. Besides, the “all experiments of the human orthotopic model repeated with 5mer peptides” value in experiment [2] (20 μg i.p. three times per week for 21 days) is “The same results as for the 14mer peptides were observed”. The “HGF induced clustering / scattering of HT29 cells (FIG. 11)” value in experiment [3] is “lead to dissociation and migration of cells away from these cell cluster”. In addition, in experiment [4], the “metastasis (axillary lymph nodes, lungs)” value is “completely inhibited metastasis”; the “outgrowth of primary tumors” value is recorded as “not influenced by either treatment”; the “metastasis and micro-metastasis in lung sections (PAS and H&E staining)” value was “neither metastasis nor micro-metastasis could be detected”.

As to “KEKWFENEWQGKNP [rat 14mer, rat CD44v6 14mer; control peptide in human and mouse models]”, in experiment [5], the “lung metastasis at day twenty-two” value is listed as “no metastasis could be detected anymore” and the “time of maximum of apoptosis” value was “eight days after the first injection”. In experiment [5] (start three weeks after tumor cell injection), the “first detection of apoptotic cells (cleaved Caspase 3) in tumor areas of the lungs” value was “as early as three days after the first injection”. Also, in experiment [1], the “Phosphorylation of Met and ERK” value is “had no influence on receptor activation and signal transduction”. Besides, in experiment [2] (setting [8]), the “metastasis formation (liver)” value is listed as “neither any influence on metastasis formation” and the “outgrowth of the primary tumor in the pancreas” value is “nor on growth of the primary tumor”. Also, in experiment [6] (5 animals), the “average number of metastases” value came out at 6 metastases per lung. Further, the “macroscopic lung metastases per animal” value in experiment [6] (5 animals per group) is listed as “all mice treated with the control peptide developed metastases”. Moreover, in experiment [4], the “metastasis (axillary lymph nodes, lungs)” value is given as “completely inhibited metastasis”; the “outgrowth of primary tumors” value is “not influenced by either treatment”; the “metastasis and micro-metastasis in lung sections (PAS and H&E staining)” value was “neither metastasis nor micro-metastasis could be detected”.

Consider “PEG-NEWQG [PEG-rat CD44v6 peptide, rat CD44v6 5mer pegylated at the N-terminal]”, for which the “HGF induced clustering / scattering of HT29 cells (FIG. 11)” value in experiment [3] was “lead to dissociation and migration of cells away from these cell cluster”. In addition, the “HGF induced scattering of HT29 cells” value in experiment [3] (PEGylated peptides 100 ng/ml prior to HGF 50 ng/ml (Example 5, FIG. 11)) was “strongly inhibited”. Further, the “HGF induced Met-phosphorylation and Erk signaling” value in experiment [7] (ASs6 cells, peptides with 2000 dalton PEG-chain, 150 nM 10 min before HGF 10 ng/ml (FIG. 10)) is “HGF completely failed to induce Met-phosphorylation and to activate Erk signaling”. For the same substance, in experiment [7] (BSp73ASs6 cells), the “Inhibition of ERK, pegylated vs. non-pegylated peptides” value is given as “even more efficient”. The “HGF dependent activation of Met and ERK” value in experiment [7] (pegylated rat 5mer, 10 min pre-incubation, HGF 10 ng/ml 5 min (FIGS. 9, 10)) is “efficient in inhibiting HGF dependent activation of Met and ERK”.
